Laboratory results reported in ChEMBL document CHEMBL1201862, “PubChem BioAssay data set” (2004).
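Protocol summary: plate cells (96-well), add compound at 5 concentrations, incubate 48 h, interpolate endpoints linearly. At the GI50, growth is halved.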 Active and inactive are the calls of the source. Cut-off read from the data, not from the text of the source: active = GI50 up to about 1.1 µM and inactive = higher.

Key:
Test in all cases: inhibition of tumour cell growth, NCI panel, 48 h
SK-MEL-2 = tested on: SK-MEL-2
RXF 393 = tested on: RXF 393
UACC-62 = tested on: UACC-62
HCT-116 = tested on: HCT-116
KM12 = tested on: KM12
RPMI-8226 = tested on: RPMI-8226
COLO 205 = tested on: COLO 205
SW-620 = tested on: SW-620
SK-OV-3 = tested on: SK-OV-3
UACC-257 = tested on: UACC-257
NCI-H23 = tested on: NCI-H23
IGROV-1 = tested on: IGROV-1
MDA-N = tested on: MDA-N
M14 = tested on: M14
K562 = tested on: K562
HL-60 = tested on: HL-60
CCRF-CEM = tested on: CCRF-CEM
OVCAR-8 = tested on: OVCAR-8
LOX IMVI = tested on: LOX IMVI
SK-MEL-28 = tested on: SK-MEL-28
SF-295 = tested on: SF-295
MDA-MB-231 = tested on: MDA-MB-231
Hs-578T = tested on: Hs-578T
U-251 = tested on: U-251
OVCAR-4 = tested on: OVCAR-4
DU-145 = tested on: DU-145
MOLT-4 = tested on: MOLT-4
HOP-62 = tested on: HOP-62
TK-10 = tested on: TK-10
T47D = tested on: T47D
MCF7 = tested on: MCF7
SN12C = tested on: SN12C
ACHN = tested on: ACHN
CAKI-1 = tested on: CAKI-1
HCT-15 = tested on: HCT-15
A549 = tested on: A549
SF-539 = tested on: SF-539
EKVX = tested on: EKVX
A498 = tested on: A498
SNB-75 = tested on: SNB-75
Malme-3M = tested on: Malme-3M
NCI-H460 = tested on: NCI-H460
OVCAR-5 = tested on: OVCAR-5
NCI/ADR-RES = tested on: NCI/ADR-RES
SK-MEL-5 = tested on: SK-MEL-5
UO-31 = tested on: UO-31
HT-29 = tested on: HT-29
786-0 = tested on: 786-0
MDA-MB-435 = tested on: MDA-MB-435
NCI-H226 = tested on: NCI-H226
HCC 2998 = tested on: HCC 2998
BT-549 = tested on: BT-549
SNB-19 = tested on: SNB-19
PC-3 = tested on: PC-3
SR = tested on: SR
HOP-92 = tested on: HOP-92
SF-268 = tested on: SF-268
OVCAR-3 = tested on: OVCAR-3
NCI-H522 = tested on: NCI-H522

Structure (SMILES): COc1nc2c(c(=O)n1C)N(C(C)=O)C1C(N2)OCC(OC(C)=O)C1OC(C)=O (stereo not drawn)
- GI50 (SK-MEL-2): > 10 µM (inactive)
- GI50 (RXF 393): > 10 µM (inactive)
- GI50 (UACC-62): > 10 µM (inactive)
- GI50 (HCT-116): > 10 µM (inactive)
- GI50 (KM12): > 10 µM (inactive)
- GI50 (RPMI-8226): > 10 µM (inactive)
- GI50 (COLO 205): > 10 µM (inactive)
- GI50 (SW-620): > 10 µM (inactive)
- GI50 (SK-OV-3): > 10 µM (inactive)
- GI50 (UACC-257): > 10 µM (inactive)
- GI50 (NCI-H23): > 10 µM (inactive)
- GI50 (IGROV-1): > 10 µM (inactive)
- GI50 (MDA-N): > 10 µM (inactive)
- GI50 (M14): > 10 µM (inactive)
- GI50 (K562): > 10 µM (inactive)
- GI50 (HL-60): > 10 µM (inactive)
- GI50 (CCRF-CEM): > 10 µM (inactive)
- GI50 (OVCAR-8): > 10 µM (inactive)
- GI50 (LOX IMVI): > 10 µM (inactive)
- GI50 (SK-MEL-28): > 10 µM (inactive)
- GI50 (SF-295): > 10 µM (inactive)
- GI50 (MDA-MB-231): > 10 µM (inactive)
- GI50 (Hs-578T): > 10 µM (inactive)
- GI50 (U-251): > 10 µM (inactive)
- GI50 (OVCAR-4): > 10 µM (inactive)
- GI50 (DU-145): > 10 µM (inactive)
- GI50 (MOLT-4): > 10 µM (inactive)
- GI50 (HOP-62): > 10 µM (inactive)
- GI50 (TK-10): > 10 µM (inactive)
- GI50 (T47D): > 10 µM (inactive)
- GI50 (MCF7): > 10 µM (inactive)
- GI50 (SN12C): > 10 µM (inactive)
- GI50 (ACHN): > 10 µM (inactive)
- GI50 (CAKI-1): > 10 µM (inactive)
- GI50 (HCT-15): > 10 µM
- GI50 (A549): > 10 µM (inactive)
- GI50 (SF-539): > 10 µM (inactive)
- GI50 (EKVX): > 10 µM (inactive)
- GI50 (A498): > 10 µM (inactive)
- GI50 (SNB-75): > 10 µM (inactive)
- GI50 (Malme-3M): > 10 µM (inactive)
- GI50 (NCI-H460): > 10 µM (inactive)
- GI50 (OVCAR-5): > 10 µM (inactive)
- GI50 (NCI/ADR-RES): > 10 µM (inactive)
- GI50 (SK-MEL-5): > 10 µM (inactive)
- GI50 (UO-31): > 10 µM (inactive)
- GI50 (HT-29): > 10 µM (inactive)
- GI50 (786-0): > 10 µM (inactive)
- GI50 (MDA-MB-435): > 10 µM (inactive)
- GI50 (NCI-H226): > 10 µM (inactive)
- GI50 (HCC 2998): > 10 µM (inactive)
- GI50 (BT-549): > 10 µM (inactive)
- GI50 (SNB-19): > 10 µM (inactive)
- GI50 (PC-3): > 10 µM (inactive)
- GI50 (SR): > 10 µM (inactive)
- GI50 (HOP-92): > 10 µM (inactive)
- GI50 (SF-268): > 10 µM (inactive)
- GI50 (OVCAR-3): > 10 µM (inactive)
- GI50 (NCI-H522): > 10 µM (inactive)

Structure (SMILES): C=C(C)[C@@H]1CC[C@]2(C(=O)O)CC[C@]3(C)[C@H](CC[C@@H]4[C@@]5(C)CC(=O)C(C)(C)[C@@H]5CC[C@]43C)[C@@H]12
- GI50 (SK-MEL-2): 4.52 µM (inactive)
- GI50 (RXF 393): 7.87 µM (inactive)
- GI50 (UACC-62): 3.28 µM (inactive)
- GI50 (HCT-116): 4.01 µM (inactive)
- GI50 (KM12): 8.77 µM (inactive)
- GI50 (RPMI-8226): 4.48 µM (inactive)
- GI50 (COLO 205): 4.68 µM (inactive)
- GI50 (SW-620): 7.23 µM (inactive)
- GI50 (SK-OV-3): 10 µM (inactive)
- GI50 (UACC-257): 7.55 µM (inactive)
- GI50 (NCI-H23): 10.9 µM (inactive)
- GI50 (IGROV-1): 9.86 µM (inactive)
- GI50 (MDA-N): 8.13 µM (inactive)
- GI50 (M14): 8.65 µM (inactive)
- GI50 (K562): 6.38 µM (inactive)
- GI50 (HL-60): 0.649 µM (active)
- GI50 (CCRF-CEM): 0.574 µM (active)
- GI50 (OVCAR-8): 11.2 µM (inactive)
- GI50 (LOX IMVI): 8.36 µM (inactive)
- GI50 (SK-MEL-28): 8.11 µM (inactive)
- GI50 (SF-295): 6.47 µM (inactive)
- GI50 (MDA-MB-231): 5.65 µM (inactive)
- GI50 (Hs-578T): 9.48 µM (inactive)
- GI50 (U-251): 6.47 µM (inactive)
- GI50 (OVCAR-4): 15 µM (inactive)
- GI50 (DU-145): 12.5 µM (inactive)
- GI50 (MOLT-4): 4.98 µM (inactive)
- GI50 (HOP-62): 9.46 µM (inactive)
- GI50 (TK-10): 11 µM (inactive)
- GI50 (T47D): 14.9 µM (inactive)
- GI50 (MCF7): 6.64 µM (inactive)
- GI50 (SN12C): 4.46 µM (inactive)
- GI50 (ACHN): 7.53 µM (inactive)
- GI50 (CAKI-1): 12.2 µM (inactive)
- GI50 (HCT-15): 8.67 µM
- GI50 (A549): 5.56 µM (inactive)
- GI50 (SF-539): 6.08 µM (inactive)
- GI50 (EKVX): 9.35 µM (inactive)
- GI50 (A498): 5.6 µM (inactive)
- GI50 (SNB-75): 10.6 µM (inactive)
- GI50 (Malme-3M): 8.05 µM (inactive)
- GI50 (NCI-H460): 4.95 µM (inactive)
- GI50 (OVCAR-5): 11 µM (inactive)
- GI50 (NCI/ADR-RES): 11.1 µM (inactive)
- GI50 (SK-MEL-5): 5.7 µM (inactive)
- GI50 (UO-31): 7.29 µM (inactive)
- GI50 (HT-29): 7.19 µM (inactive)
- GI50 (786-0): 7 µM (inactive)
- GI50 (MDA-MB-435): 8.02 µM (inactive)
- GI50 (NCI-H226): 9.38 µM (inactive)
- GI50 (HCC 2998): 5.9 µM (inactive)
- GI50 (BT-549): 10.3 µM (inactive)
- GI50 (SNB-19): 11.7 µM (inactive)
- GI50 (PC-3): 7.24 µM (inactive)
- GI50 (SR): 5.13 µM (inactive)
- GI50 (HOP-92): 11.1 µM (inactive)
- GI50 (SF-268): 14.8 µM (inactive)
- GI50 (OVCAR-3): 6.38 µM (inactive)
- GI50 (NCI-H522): 5.78 µM (inactive)
